Assay results reported in ChEMBL document CHEMBL4196047, “Discovery and evolution of aloperine derivatives as novel anti-filovirus agents through targeting entry stage” (Eur J Med Chem, 2018).
Activity calls are given as the source filed them. The calls are words filed in the database; no cut-off is given here.

What was measured:
[1] = in vitro; conditions: human, HEK293T cells
[2] = in vitro; conditions: human, HEK293T cells; remark: listed apart in the source
[3] = system: Ebolavirus; assay: microbe, parasite or virus in culture; assay type: functional, cell-based; conditions: Orthoebolavirus, HEK-293T
[4] = system: Vesicular stomatitis virus; assay: microbe, parasite or virus in culture; assay type: functional, organism-based; conditions: HEK-293T
[5] = system: Marburgvirus; assay: microbe, parasite or virus in culture; assay type: functional, organism-based; conditions: Orthomarburgvirus, HEK-293T
[6] = in vitro; conditions: human, HEK293T cells; remark: listed apart in the source
[7] = system: HEK-293T; assay: Inhibition of endosomal acidification in HEK293T cells at […] after 1 hr by LysoTracker Red dye-based confocal fluorescence microscopic analysis; assay type: functional, cell-based; conditions: Homo sapiens
[8] = MRT in BALB/c mouse at 25 mg/kg, po; assay type: ADME, organism-based; conditions: in vivo
[9] = Toxicity in iv dosed Kunming mouse administered as single dose measured for 7 days; assay type: organism-based; conditions: in vivo
[10] = system: Ebolavirus; assay: Antiviral activity against HIV1 pseudotyped EBOV infected in HEK293T cells assessed as inhibition of late stage viral entry at 25 uM treated during infection measured after 72 hrs by luciferase reporter gene assay relative to control; assay type: functional; conditions: Orthoebolavirus, HEK-293T
[11] = Half life in BALB/c mouse at 25 mg/kg, po; assay type: ADME, organism-based; conditions: in vivo
[12] = system: Marburgvirus; assay: Antiviral activity against HIV1 pseudotyped MARV infected in BALB/c mouse at 100 ug, iv and ip measured at day 4 by bioluminescence assay relative to control; assay type: functional
[13] = Toxicity in ip dosed Kunming mouse administered as single dose measured for 7 days; assay type: organism-based; conditions: in vivo
[14] = system: HEK-293T; assay: Inhibition of endosomal acidification in HEK293T cells at 20 to 40 uM after 1 hr by LysoTracker Red dye-based confocal fluorescence microscopic analysis; assay type: functional, cell-based; conditions: Homo sapiens
[15] = Toxicity in ig dosed Kunming mouse administered as single dose measured for 7 days; assay type: organism-based; conditions: in vivo, po
[16] = system: Ebolavirus; assay: Antiviral activity against HIV1 pseudotyped EBOV infected in HEK293T cells assessed as inhibition of late stage viral entry at 25 uM treated for 1 hr before infection measured after 72 hrs by luciferase reporter gene assay relative to control; assay type: functional; conditions: Orthoebolavirus, HEK-293T
[17] = biological target: Procathepsin L (Homo sapiens) (UniProt P07711); assay: Inhibition of cathepsin L in HEK293 cells using N-benzyloxycarbonyl-L-phenylalanyl-L-arginine-7-amido-4-methylcoumarin as substrate; assay type: cell-based
[18] = system: Ebolavirus; assay: Antiviral activity against HIV1 pseudotyped EBOV infected in HEK293T cells assessed as inhibition of late stage viral entry at 25 uM treated for 1 hr post infection measured after 72 hrs by luciferase reporter gene assay relative to control; assay type: functional; conditions: Orthoebolavirus, HEK-293T
[19] = Cmax in BALB/c mouse at 25 mg/kg, po; assay type: ADME, organism-based; parameters: dose 25 mg/kg, route oral; conditions: in vivo
[20] = Tmax in BALB/c mouse at 25 mg/kg, po; assay type: ADME, organism-based; conditions: in vivo
[21] = AUC (0 to t) in BALB/c mouse at 25 mg/kg, po; assay type: ADME, organism-based; conditions: in vivo
[22] = biological target: Cathepsin B (Homo sapiens) (UniProt P07858); assay: Inhibition of cathepsin B in HEK293 cells using N-benzyloxycarbonyl-L-arginyl-L-arginine-7-amido-4-methylcoumarin as substrate; assay type: cell-based
[23] = AUC (0 to infinity) in BALB/c mouse at 25 mg/kg, po; assay type: ADME, organism-based; parameters: dose 25 mg/kg, time infinity, route oral; conditions: in vivo

Sequence of Procathepsin L (Homo sapiens) (P07711 114-333 limits assumed): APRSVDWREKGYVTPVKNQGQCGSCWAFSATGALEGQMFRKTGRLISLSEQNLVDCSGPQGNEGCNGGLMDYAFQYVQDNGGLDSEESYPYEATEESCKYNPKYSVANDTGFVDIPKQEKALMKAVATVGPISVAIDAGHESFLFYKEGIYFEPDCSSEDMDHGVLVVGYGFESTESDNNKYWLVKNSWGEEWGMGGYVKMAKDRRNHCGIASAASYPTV

Compound: Clc1cc(Cl)cc(CCCN2CCCC3=C[C@H]4C[C@H](CN5CCCC[C@H]45)[C@@H]32)c1
- selectivity ratio [1]: 4.2
- CC50 [2]: 25.9 µM
- EC50 [3]: 6.1 µM
- EC50 [4]: 19.6 µM

Compound: O=C(c1ccc(Cl)c(Cl)c1)N1CCCC2=C[C@H]3C[C@H](CN4CCCC[C@H]34)[C@@H]21
- selectivity ratio [1]: 4.1
- EC50 [5]: 80.8 µM
- selectivity ratio [6]: 2.5
- CC50 [2]: 200 µM
- EC50 [3]: 49 µM
- EC50 [4]: 98.6 µM

Compound: Clc1cc(Cl)cc(CCN2CCCC3=C[C@H]4C[C@H](CN5CCCC[C@H]45)[C@@H]32)c1
- selectivity ratio [1]: 9.8
- CC50 [2]: 56 µM
- EC50 [3]: 5.7 µM
- EC50 [4]: 42.5 µM

Compound: Clc1ccc(CCCN2CCCC3=C[C@H]4C[C@H](CN5CCCC[C@H]45)[C@@H]32)cc1
- selectivity ratio [1]: 10.4
- CC50 [2]: 74.1 µM
- EC50 [3]: 7.1 µM
- EC50 [4]: 49.9 µM

Compound: C1=C2CCCN[C@H]2[C@@H]2C[C@H]1[C@H]1CCCCN1C2
- selectivity ratio [1]: > 16.1
- EC50 [5]: 10.2 µM
- selectivity ratio [6]: > 19.6
- CC50 [2]: > 200 µM
- EC50 [3]: 12.4 µM
- EC50 [4]: 103 µM

Compound: N#Cc1cccc(S(=O)(=O)N2CCCC3=C[C@H]4C[C@H](CN5CCCC[C@H]45)[C@@H]32)c1
- selectivity ratio [1]: > 2.9
- EC50 [5]: 70.7 µM
- selectivity ratio [6]: > 2.8
- CC50 [2]: > 200 µM
- EC50 [3]: 69.4 µM
- EC50 [4]: > 200 µM

Compound: Clc1ccc(CCN2CCCC3=C[C@H]4C[C@H](CN5CCCC[C@H]45)[C@@H]32)cc1
- selectivity ratio [1]: 13.9
- CC50 [2]: 83.3 µM
- EC50 [3]: 6 µM
- EC50 [4]: 52.2 µM

Compound: C1=C2CCCN(Cc3ccccc3)[C@H]2[C@@H]2C[C@H]1[C@H]1CCCCN1C2
- selectivity ratio [1]: 11
- EC50 [5]: 22 µM
- selectivity ratio [6]: 7.6
- CC50 [2]: 168 µM
- EC50 [3]: 15.2 µM
- EC50 [4]: 28.3 µM

Compound: FC(F)(F)Oc1ccc(CN2CCCC3=C[C@H]4C[C@H](CN5CCCC[C@H]45)[C@@H]32)cc1
- selectivity ratio [1]: 7.9
- EC50 [5]: 11.9 µM
- selectivity ratio [6]: 6.9
- CC50 [2]: 82 µM
- EC50 [3]: 10.4 µM
- EC50 [4]: 22.4 µM

Compound: O=C(c1cc(Cl)cc(Cl)c1)N1CCCC2=C[C@H]3C[C@H](CN4CCCC[C@H]34)[C@@H]21
- selectivity ratio [1]: > 5
- EC50 [5]: 35.3 µM
- selectivity ratio [6]: > 5.7
- CC50 [2]: > 200 µM
- EC50 [3]: 39.8 µM
- EC50 [4]: > 200 µM

Compound: O=S(=O)(c1cc(Cl)cc(Cl)c1)N1CCCC2=C[C@H]3C[C@H](CN4CCCC[C@H]34)[C@@H]21
- selectivity ratio [1]: > 18.9
- EC50 [5]: 27.2 µM
- selectivity ratio [6]: > 7.4
- CC50 [2]: > 200 µM
- EC50 [3]: 10.6 µM
- EC50 [4]: 31.3 µM

Compound: O=S(=O)(c1ccc(Cl)c(Cl)c1)N1CCCC2=C[C@H]3C[C@H](CN4CCCC[C@H]34)[C@@H]21
- selectivity ratio [1]: > 8.3
- EC50 [5]: 10.5 µM
- selectivity ratio [6]: > 19
- CC50 [2]: > 200 µM
- EC50 [3]: 24.1 µM
- EC50 [4]: 45.4 µM

Compound: COc1cccc(CN2CCCC3=C[C@H]4C[C@H](CN5CCCC[C@H]45)[C@@H]32)c1
- selectivity ratio [1]: > 16.5
- EC50 [5]: 17.8 µM
- selectivity ratio [6]: > 11.2
- CC50 [2]: > 200 µM
- EC50 [3]: 12.1 µM
- EC50 [4]: 59 µM

Compound: Clc1ccc(CCN2CCCC3=C[C@H]4C[C@H](CN5CCCC[C@H]45)[C@@H]32)cc1Cl
- selectivity ratio [1]: 7.6
- CC50 [2]: 51.5 µM
- EC50 [3]: 6.8 µM
- EC50 [4]: 44 µM

Compound: Clc1cc(Cl)cc(CN2CCCC3=C[C@H]4C[C@H](CN5CCCC[C@H]45)[C@@H]32)c1
- selectivity ratio [1]: 10.3
- EC50 [5]: 8.5 µM
- selectivity ratio [6]: 9.8
- CC50 [2]: 83.5 µM
- EC50 [3]: 8.1 µM
- EC50 [4]: 34.3 µM

Compound: Clc1ccc(CCCN2CCCC3=C[C@H]4C[C@H](CN5CCCC[C@H]45)[C@@H]32)cc1Cl
- selectivity ratio [1]: 5
- CC50 [2]: 29.3 µM
- EC50 [3]: 5.8 µM
- EC50 [4]: 23 µM

Compound: Cl.N
- inhibition [7]: Active

Compound: Cc1ccccc1CN1CCCC2=C[C@H]3C[C@H](CN4CCCC[C@H]34)[C@@H]21
- selectivity ratio [1]: 9.7
- EC50 [5]: 15 µM
- selectivity ratio [6]: 10.8
- CC50 [2]: 162 µM
- EC50 [3]: 16.6 µM
- EC50 [4]: 39 µM

Compound: Clc1ccc(CN2CCCC3=C[C@H]4C[C@H](CN5CCCC[C@H]45)[C@@H]32)cc1
- selectivity ratio [1]: > 16.8
- EC50 [5]: 9.8 µM
- selectivity ratio [6]: > 20.4
- CC50 [2]: > 200 µM
- EC50 [3]: 11.9 µM
- EC50 [4]: 77.8 µM

Compound: O=S(=O)(c1cccs1)N1CCCC2=C[C@H]3C[C@H](CN4CCCC[C@H]34)[C@@H]21
- selectivity ratio [1]: > 6
- EC50 [5]: 62.4 µM
- selectivity ratio [6]: > 3.2
- CC50 [2]: > 200 µM
- EC50 [3]: 33.2 µM
- EC50 [4]: > 200 µM

Compound: O=S(=O)(c1ccc(Cl)cc1)N1CCCC2=C[C@H]3C[C@H](CN4CCCC[C@H]34)[C@@H]21
- selectivity ratio [1]: > 9.2
- EC50 [5]: 18.8 µM
- selectivity ratio [6]: > 10.6
- CC50 [2]: > 200 µM
- EC50 [3]: 21.8 µM
- EC50 [4]: 104 µM

Compound: Clc1ccc(CN2CCCC3=C[C@H]4C[C@H](CN5CCCC[C@H]45)[C@@H]32)cc1Cl
- MRT [8]: 4.89 h
- selectivity ratio [1]: > 41.7
- LD50 at 168 h [9]: 28.3 mg/kg
- inhibition at 25 µM [10]: 23 to 66%
- EC50 [5]: 7.1 µM
- half-life [11]: 4.14 h
- selectivity ratio [6]: > 28.2
- Activity [12]: 45%
- LD50 at 168 h [13]: > 100 mg/kg
- CC50 [2]: > 200 µM
- inhibition [14]: inactive
- LD50 at 168 h [15]: 458 mg/kg
- inhibition at 25 µM [16]: < 38%
- inhibition [17]: inactive
- inhibition at 25 µM [18]: 85%
- EC50 [3]: 4.8 µM
- Cmax [19]: 290 nM
- Tmax [20]: 0.67 h
- AUC(0-t) [21]: 2.74 µM·h
- EC50 [4]: > 200 µM
- inhibition [22]: Active
- AUC(0-inf) [23]: 4.89 µM·h

Compound: O=C(c1ccc(Cl)cc1)N1CCCC2=C[C@H]3C[C@H](CN4CCCC[C@H]34)[C@@H]21
- selectivity ratio [1]: > 5.9
- EC50 [5]: 112 µM
- selectivity ratio [6]: > 1.8
- CC50 [2]: > 200 µM
- EC50 [3]: 34.1 µM
- EC50 [4]: 89.6 µM

Compound: Fc1ccc(CN2CCCC3=C[C@H]4C[C@H](CN5CCCC[C@H]45)[C@@H]32)cc1
- selectivity ratio [1]: > 11.8
- EC50 [5]: 21.5 µM
- selectivity ratio [6]: > 9.3
- CC50 [2]: > 200 µM
- EC50 [3]: 17 µM
- EC50 [4]: 107 µM

Compound: Clc1ccc(CN2CCCC3=C[C@H]4C[C@H](CN5CCCC[C@H]45)[C@@H]32)c(Cl)c1
- selectivity ratio [1]: > 30.3
- EC50 [5]: 6.4 µM
- selectivity ratio [6]: > 31.2
- CC50 [2]: > 200 µM
- EC50 [3]: 6.6 µM
- EC50 [4]: 10.6 µM
